Test results taken from patent US12240840B2, “Amide-substituted heterocyclic compounds for the treatment of conditions related to the modulation of IL-12, IL-23 and/or IFN-alpha” (BRISTOL-MYERS SQUIBB COMPANY, priority 2018, dated 2025).

These compounds were tested on IFNα-induced pSTAT5 (pY694) in CD3 positive cells of human whole blood (assay: IFNα-Induced STAT Phosphorylation in Human Whole Blood). Conditions: Homo sapiens, 1 h compound incubation, 1000 U/mL recombinant human IFNα A/D for 15 min, pSTAT5 in CD3 positive population, read-out: Human WB IFNα-Induced Stat Phosph. (IC50).
Format: cell-based
Description: IFNα-Induced STAT Phosphorylation in Human Whole Blood
After an hour long incubation with compound, human whole blood (drawn with either EDTA or ACD-A as anti-coagulant) was stimulated with 1000 U/mL recombinant human IFNα A/D (R&D Systems 11200-2) for 15 min. The stimulation was stopped by adding Fix/Lyse buffer (BD 558049). Cells were stained with a CD3 FITC antibody (BD 555916), washed, and permeabilized on ice using Perm III buffer (BD 558050). Cells were then stained with an Alexa-Fluor 647 pSTAT5 (pY694) antibody (BD 612599) for 30 min prior to analysis on the FACS Canto II. The amount of pSTAT5 expression was quantitated by median fluorescence intensity after gating on the CD3 positive population.
IFNα-Induced STAT Phosphorylation in Human Whole Blood Inhibition Data ND—no data available

Row | SMILES | IC50 [µM]
1 | [2H]C([2H])([2H])NC(=O)c1nnc(NC(=O)C2CC2)cc1Nc1cccc(-n2cc(CN3CCS(=O)(=O)CC3)nn2)c1OC [Example 1, 6-(cyclopropanecarboxamido)-4-((3-(4-((1,1-dioxidothiomorpholino)methyl)-1H-1,2,3-triazol-1-yl)-2-methoxyphenyl)amino)-N-(trideuteromethyl)pyridazine-3-carboxamide] | 2.8
2 | [2H]C([2H])([2H])NC(=O)c1nnc(NC(=O)C2CC2)cc1Nc1cccc(-n2cc(CN3CCOCC3)nn2)c1OC [Example 2] | 0.65
3 | [2H]C([2H])([2H])NC(=O)c1nnc(NC(=O)C2CC2)cc1Nc1cccc(-n2cc(CO)nn2)c1OC [Example 3] | 0.98
4 | [2H]C([2H])([2H])NC(=O)c1nnc(NC(=O)C2CC2)cc1Nc1cccc(-n2cc(CN3CCN(S(C)(=O)=O)CC3)nn2)c1OC [Example 4] | 0.66
5 | [2H]C([2H])([2H])NC(=O)c1nnc(NC(=O)C2CC2)cc1Nc1cccc(-n2cc(CNC)nn2)c1OC [Example 5] | 3.3
6 | [2H]C([2H])([2H])NC(=O)c1nnc(NC(=O)C2CC2)cc1Nc1cccc(-c2noc(CN)n2)c1OC [Example 6, 4-((3-(5-(aminomethyl)-1,2,4-oxadiazol-3-yl)-2-methoxyphenyl)amino)-6-(cyclopropanecarboxamido)-N-trideuteromethylpyridazine-3-carboxamide] | 0.11
7 | [2H]C([2H])([2H])NC(=O)c1nnc(NC(=O)C2CC2)cc1Nc1cccc(-c2noc(CN3CCOCC3)n2)c1OC [Example 7] | 0.024
8 | COc1c(Nc2cc(NC(=O)C3CC3)nnc2C(N)=O)cccc1-c1noc(CN2CCOCC2)n1 [Example 8] | 0.021
9 | COc1c(Nc2cc(NC(=O)C3CC3)nnc2C(N)=O)cccc1-c1noc(CN(C)S(=O)(=O)C2CC2)n1 [Example 9] | 0.016
10 | COc1c(Nc2cc(NC(=O)C3CC3)nnc2C(N)=O)cccc1-c1noc([C@@H]2C[C@@H](O)CN2S(C)(=O)=O)n1 [Example 11] | 0.021
11 | [2H]C([2H])([2H])NC(=O)c1nnc(NC(=O)C2CC2)cc1Nc1cccc(-c2noc(CN3CCCCS3(=O)=O)n2)c1OC [Example 12] | 0.011
12 | COc1c(Nc2cc(NC(=O)C3CC3)nnc2C(N)=O)cccc1-c1noc(CNS(=O)(=O)c2ccccc2)n1 [Example 13] | 0.024
13 | [2H]C([2H])([2H])NC(=O)c1nnc(NC(=O)C2CC2)cc1Nc1cccc(-c2noc(CN3CCN(C(=O)OC)CC3)n2)c1OC [Example 14] | 0.05
14 | [2H]C([2H])([2H])NC(=O)c1nnc(NC(=O)C2CC2)cc1Nc1cccc(-c2noc(CN3CCN(S(C)(=O)=O)CC3)n2)c1OC [Example 15] | 0.03
15 | [2H]C([2H])([2H])NC(=O)c1nnc(NC(=O)C2CC2)cc1Nc1cccc(-c2noc(C(=O)N3CCOCC3)n2)c1OC [Example 16] | 0.56
16 | [2H]C([2H])([2H])NC(=O)c1nnc(NC(=O)C2CC2)cc1Nc1cccc(-c2noc(C(=O)N(C)C)n2)c1OC [Example 17] | 0.49
17 | [2H]C([2H])([2H])NC(=O)c1nnc(NC(=O)C2CC2)cc1Nc1cccc(-c2noc(C(=O)NCCOC)n2)c1OC [Example 19] | 0.25
18 | [2H]C([2H])([2H])NC(=O)c1nnc(NC(=O)C2CC2)cc1Nc1cccc(-c2noc(C(=O)N3CCS(=O)(=O)CC3)n2)c1OC [Example 20] | 1.5
19 | [2H]C([2H])([2H])NC(=O)c1nnc(NC(=O)C2CC2)cc1Nc1cccc(-c2noc(C(=O)NCCC3CCCN3C)n2)c1OC (stereo not shown) [Example 21] | 0.022
20 | [2H]C([2H])([2H])NC(=O)c1nnc(NC(=O)C2CC2)cc1Nc1cccc(-c2noc(CC(=O)N3CCOCC3)n2)c1OC [Example 23] | 0.06
21 | [2H]C([2H])([2H])NC(=O)c1nnc(NC(=O)C2CC2)cc1Nc1cccc(-c2noc(C(=O)NC3CCC(N(C)C)CC3)n2)c1OC (stereo not shown) [Example 24] | 0.24
22 | [2H]C([2H])([2H])NC(=O)c1nnc(NC(=O)C2CC2)cc1Nc1cccc(-c2noc(CCC(=O)N3CCOCC3)n2)c1OC [Example 25] | 0.43

Row | SMILES | IC50 [µM]
23 | [2H]C([2H])([2H])NC(=O)c1nnc(NC(=O)C2CC2)cc1Nc1cccc(-c2noc(CCC(=O)NCCC3CCCN3C)n2)c1OC (stereo not shown) [Example 26] | 3.9
24 | [2H]C([2H])([2H])NC(=O)c1nnc(NC(=O)C2CC2)cc1Nc1cccc(-c2noc(C(C)(C)C(=O)N3CCOCC3)n2)c1OC [Example 27] | 2.01
25 | [2H]C([2H])([2H])NC(=O)c1nnc(NC(=O)C2CC2)cc1Nc1cccc(-c2noc(C3(C(=O)N4CCOCC4)CC3)n2)c1OC [Example 28] | 0.21
26 | [2H]C([2H])([2H])NC(=O)c1nnc(NC(=O)C2CC2)cc1Nc1cccc(-c2noc(C(C)C(=O)N3CCOCC3)n2)c1OC (stereo not shown) [Example 29] | 0.13
27 | [2H]C([2H])([2H])NC(=O)c1nnc(NC(=O)C2CC2)cc1Nc1cccc(-c2noc(CNC(=O)OC)n2)c1OC [Example 30] | 1.38
28 | [2H]C([2H])([2H])NC(=O)c1nnc(NC(=O)C2CC2)cc1Nc1cccc(-c2noc(CNC(C)=O)n2)c1OC [Example 31] | 0.38
29 | [2H]C([2H])([2H])NC(=O)c1nnc(NC(=O)C2CC2)cc1Nc1cccc(-c2noc(CNS(C)(=O)=O)n2)c1OC [Example 32] | 0.08
30 | [2H]C([2H])([2H])NC(=O)c1nnc(NC(=O)C2CC2)cc1Nc1cccc(-c2noc(CN3CCN(C(=O)OC(C)(C)C)CC3)n2)c1OC [Example 34] | 1.01
31 | [2H]C([2H])([2H])NC(=O)c1nnc(NC(=O)C2CC2)cc1Nc1cccc(-c2noc(CN3CCNCC3)n2)c1OC [Example 35] | 0.12
32 | COc1c(Nc2cc(NC(=O)C3CC3)nnc2C(N)=O)cccc1-c1noc(CC(=O)N2CCOCC2)n1 [Example 36] | 0.03
33 | COc1c(Nc2cc(NC(=O)C3CC3)nnc2C(N)=O)cccc1-c1noc(C(=O)NCCC2CCCN2C)n1 (stereo not shown) [Example 37] | 0.018
34 | COc1c(Nc2cc(NC(=O)C3CC3)nnc2C(N)=O)cccc1-c1noc(CNS(C)(=O)=O)n1 [Example 38] | 0.03
35 | COC(=O)N1CCN(Cc2nc(-c3cccc(Nc4cc(NC(=O)C5CC5)nnc4C(N)=O)c3OC)no2)CC1 [Example 39] | 0.023
36 | COc1c(Nc2cc(NC(=O)C3CC3)nnc2C(N)=O)cccc1-c1noc(CN2CCN(S(C)(=O)=O)CC2)n1 [Example 40] | 0.012
37 | [2H]C([2H])([2H])NC(=O)c1nnc(NC(=O)C2CC2)cc1Nc1cccc(-c2noc(C(CC)C(=O)NCCOC)n2)c1OC (stereo not shown) [Example 41] | 0.06
38 | [2H]C([2H])([2H])NC(=O)c1nnc(NC(=O)C2CC2)cc1Nc1cccc(-c2noc(C(CCC)C(=O)N3CCOCC3)n2)c1OC (stereo not shown) [Example 42] | 0.23
39 | [2H]C([2H])([2H])NC(=O)c1nnc(NC(=O)C2CC2)cc1Nc1cccc(-c2noc(C(CCC)C(=O)NCCOC)n2)c1OC (stereo not shown) [Example 43] | 0.17
40 | COc1c(Nc2cc(NC(=O)C3CC3)nnc2C(N)=O)cccc1-c1noc(CN(C)S(C)(=O)=O)n1 [Example 44] | 0.009
41 | [2H]C([2H])([2H])NC(=O)c1nnc(NC(=O)C2CC2)cc1Nc1cccc(-c2noc(C(CC)C(=O)N3CCOCC3)n2)c1OC (stereo not shown) [Example 45] | 0.16
42 | COc1c(Nc2cc(NC(=O)C3CC3)nnc2C(N)=O)cccc1-c1noc([C@H](C)NS(C)(=O)=O)n1 [Example 46] | 0.14
43 | COc1c(Nc2cc(NC(=O)C3CC3)nnc2C(N)=O)cccc1-c1noc([C@@H](C)NS(C)(=O)=O)n1 [Example 47] | 0.14
